Where a name gives a salt, the structure may show the parent alone. Some results are limits rather than exact numbers.

The first test deals with T1, recombinant full-length USP7 (Homo sapiens, UniProt Q93009).
T1 construct: A 25 μl reaction volume containing recombinant full-length USP7 (62 pM)
T1 sequence (Q93009 whole entry): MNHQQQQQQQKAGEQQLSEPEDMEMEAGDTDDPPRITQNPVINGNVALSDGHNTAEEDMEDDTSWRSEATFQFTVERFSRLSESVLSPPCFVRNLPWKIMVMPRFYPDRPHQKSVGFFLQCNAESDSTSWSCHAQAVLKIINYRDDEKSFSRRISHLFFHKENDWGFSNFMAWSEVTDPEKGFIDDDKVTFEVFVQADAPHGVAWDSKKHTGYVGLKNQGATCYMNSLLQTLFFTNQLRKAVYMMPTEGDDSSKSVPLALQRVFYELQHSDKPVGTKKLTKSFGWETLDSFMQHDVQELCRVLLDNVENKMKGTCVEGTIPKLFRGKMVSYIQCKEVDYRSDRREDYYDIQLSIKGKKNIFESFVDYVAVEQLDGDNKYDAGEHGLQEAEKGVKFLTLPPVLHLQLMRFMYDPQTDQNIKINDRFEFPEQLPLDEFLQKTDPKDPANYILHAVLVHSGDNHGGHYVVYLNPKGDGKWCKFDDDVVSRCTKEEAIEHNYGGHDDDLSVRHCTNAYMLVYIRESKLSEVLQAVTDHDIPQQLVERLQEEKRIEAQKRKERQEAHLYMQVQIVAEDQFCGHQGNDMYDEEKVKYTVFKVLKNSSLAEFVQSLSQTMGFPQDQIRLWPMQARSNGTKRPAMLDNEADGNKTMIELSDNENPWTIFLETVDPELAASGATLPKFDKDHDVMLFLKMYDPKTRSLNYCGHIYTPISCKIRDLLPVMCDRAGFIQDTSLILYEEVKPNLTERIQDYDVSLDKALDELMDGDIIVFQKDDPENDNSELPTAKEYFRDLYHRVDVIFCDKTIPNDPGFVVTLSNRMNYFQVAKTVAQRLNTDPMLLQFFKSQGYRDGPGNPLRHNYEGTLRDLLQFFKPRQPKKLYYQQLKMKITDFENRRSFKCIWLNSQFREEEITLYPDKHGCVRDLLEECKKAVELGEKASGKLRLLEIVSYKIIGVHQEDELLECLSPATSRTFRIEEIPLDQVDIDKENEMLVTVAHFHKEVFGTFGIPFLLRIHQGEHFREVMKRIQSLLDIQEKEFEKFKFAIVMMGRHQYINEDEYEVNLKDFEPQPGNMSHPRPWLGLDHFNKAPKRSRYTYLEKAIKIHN
In words: USP7-mediated ubiquitin-rhodamine cleavage assay. The format is biochemical. The conditions noted are these: recombinant full-length USP7 62 pM; ubiquitin-rhodamine 100 nM; 30-minute incubation with compound, 1 hour reaction at room temperature; read-out: Potency: USP7 IC50. The method, boiled down:
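USP7 (62 pM) in 20 mM HEPES pH 7.3, 150 mM NaCl, 1 mM TCEP, 125 μg/ml BSA was preincubated with compound (1% DMSO) for 30 min at room temperature. Ubiquitin-rhodamine (100 nM final) was then added for 1 hour, the reaction stopped with acetic acid, and fluorescence read; IC50 from 4-parameter fit.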
As a reminder, the IC50 is the concentration needed to halve the response being measured. As to `Cc1cc(C#N)cc(-c2ncnc3ccsc23)c1OCC1(C)CNC1` [Example 24, 3-Methyl-4-((3-methylazetidin-3-yl)methoxy)-5-(thieno[3,2-d]pyrimidin-4-yl)benzonitrile], the IC50 was in the range of 10000 to 30000 nM.

For `Cc1cc(C#N)cc(-c2ccnc3ccsc23)c1OCC1(C)CNC1` [Example 44, 3-Methyl-4-((3-methylazetidin-3-yl)methoxy)-5-(thieno[3,2-b]pyridin-7-yl)benzonitrile], the IC50 was 1000 to 10000 nM.

In the case of `Cc1cc(Cl)cc(-c2ncnc3cc(CN4C(=O)C5C(C4=O)C5(C)C)sc23)c1O[C@@H]1CCN(C)C[C@@H]1C` (stereo partly drawn) [Example 373, 3-[[4-[5-chloro-2-[[(3S,4R)-1,3-dimethyl-4-piperidyl]oxy]-3-methyl-phenyl]thieno[3,2-d]pyrimidin-6-yl]methyl]-6,6-dimethyl-3-azabicyclo[3.1.0]hexane-2,4-dione dihydrochloride], the IC50 is below 1000 nM.

As to `CCN1CC[C@@H](Oc2c(C)cc(Cl)cc2-c2ccnc3cc(CN4C(=O)C5CC5C4=O)sc23)[C@@H](C)C1` (stereo partly drawn) [Example 325, 3-[[7-[5-chloro-2-[[(3S,4R)-1-ethyl-3-methyl-4-piperidyl]oxy]-3-methyl-phenyl]thieno[3,2-b]pyridin-2-yl]methyl]-3-azabicyclo[3.1.0]hexane-2,4-dione], the concentration for half-maximal inhibition (IC50) is below 1000 nM.

Take `CCN1CCC(Oc2c(C)cc(Cl)cc2-c2ccnc3cc(CN4C(=O)CCC4=O)sc23)CC1` [Example 176, 1-((7-(5-Chloro-2-((1-ethylpiperidin-4-yl)oxy)-3-methylphenyl)thieno[3,2-b]pyridin-2-yl)methyl)pyrrolidine-2,5-dione]: the IC50 is below 1000 nM.

On to `Cc1cc(Cl)cc(-c2ncnc3cc(CN4C(=O)C5C(C4=O)C5(C)C)sc23)c1OC1CNCC1(C)F` (centres unmarked) [Example 386, 3-[[4-[5-chloro-2-(4-fluoro-4-methyl-pyrrolidin-3-yl)oxy-3-methyl-phenyl]thieno[3,2-d]pyrimidin-6-yl]methyl]-6,6-dimethyl-3-azabicyclo[3.1.0]hexane-2,4-dione dihydrochloride], for which the IC50 was below 1000 nM.

As to `O=C1CCC(=O)N1Cc1cc2nccc(-c3cc(Cl)cc(Br)c3O[C@@H]3CNC[C@@H]3F)c2s1` [Example 102, 1-((7-(3-Bromo-5-chloro-2-(((3R,4S)-4-fluoropyrrolidin-3-yl)oxy)phenyl)thieno[3,2-b]pyridin-2-yl)methyl)pyrrolidine-2,5-dione], the IC50 was below 1000 nM.

As to `Cc1cc(Cl)cc(-c2ncnc3cc(CN4C(=O)CCC4=O)sc23)c1O[C@@H]1CNC[C@@H]1F` [Example 113, 1-((4-(5-Chloro-2-(((3R,4S)-4-fluoropyrrolidin-3-yl)oxy)-3-methylphenyl)thieno[3,2-d]pyrimidin-6-yl)methyl)pyrrolidine-2,5-dione], the half-inhibitory concentration (IC50) lay within 1000 to 10000 nM.

As for `Cc1cc(Cl)cc(-c2ccnc3cc(CN4C(=O)C5CC5C4=O)sc23)c1O[C@@H]1CN(C)C[C@@H]1F` (stereo partly drawn) [Example 314, 3-[[7-[5-chloro-2-[(3R,4S)-4-fluoro-1-methyl-pyrrolidin-3-yl]oxy-3-methyl-phenyl]thieno[3,2-b]pyridin-2-yl]methyl]-3-azabicyclo[3.1.0]hexane-2,4-dione], the IC50 was below 1000 nM.

As for `Cc1cc(C#N)cc(-c2ccnc3cc(CN4C(=O)CCC4=O)sc23)c1OCC1(C)CNC1` [Example 46, 3-(2-((2,5-Dioxopyrrolidin-1-yl)methyl)thieno[3,2-b]pyridin-7-yl)-5-methyl-4-((3-methylazetidin-3-yl)methoxy)benzonitrile], the concentration for half-maximal inhibition (IC50) is below 1000 nM.

As for `Cc1cc(Cl)cc(-c2ccnc3cc([C@@H](C)N4C(=O)C5C(C4=O)C5(C)C)sc23)c1OC1CCC(C)NC1` (stereo partly drawn) [Example 397, 3-[(1R)-1-[7-[5-chloro-3-methyl-2-[(6-methyl-3-piperidyl)oxy]phenyl]thieno[3,2-b]pyridin-2-yl]ethyl]-6,6-dimethyl-3-azabicyclo[3.1.0]hexane-2,4-dione; 2,2,2-trifluoroacetic acid], the IC50 was below 1000 nM.

Regarding `Cc1cc(F)cc(-c2ccnc3cc(CO)sc23)c1O[C@H]1CCCNC1` [Example 238, (S)-(7-(5-Fluoro-3-methyl-2-(piperidin-3-yloxy)phenyl)thieno[3,2-b]pyridin-2-yl)methanol], the IC50 was in the range of 10000 to 30000 nM.

Staying with this test, now noted: recombinant full-length USP7 62 pM; ubiquitin-rhodamine 100 nM; 30-minute incubation, 1 hour reaction at room temperature; read-out: Potency (USP7 IC50).
As for `Cc1cc(Cl)cc(-c2ccnc3cc(Cn4c(=O)ccn(CC(F)(F)F)c4=O)sc23)c1OCC1(C(F)F)CNC1` [Example 673, 3-[[7-[5-chloro-2-[[3-(difluoromethyl)azetidin-3-yl]methoxy]-3-methyl-phenyl]thieno[3,2-b]pyridin-2-yl]methyl]-1-(2,2,2-trifluoroethyl)pyrimidine-2,4-dione], the IC50 is below 1000 nM.

Turning to `Cc1cc(Cl)cc(-c2ccnc3cc(Cn4c(=O)ccn(CC(F)(F)F)c4=O)sc23)c1OC1CC(N2CC(O)C2)C1` (centres unmarked) [Example 700, 3-[[7-[5-chloro-2-[3-(3-hydroxyazetidin-1-yl)cyclobutoxy]-3-methyl-phenyl]thieno[3,2-b]pyridin-2-yl]methyl]-1-(2,2,2-trifluoroethyl)pyrimidine-2,4-dione; 2,2,2-trifluoroacetic acid], the IC50 was below 1000 nM.

`Cc1cc(Cl)cc(-c2ccnc3cc(Cn4c(=O)ccn(CC(F)(F)F)c4=O)sc23)c1O[C@@H]1CCN(CC(=O)O)C[C@@H]1C` [Example 691, 2-[(3S,4R)-4-[4-chloro-2-[2-[[2,6-dioxo-3-(2,2,2-trifluoroethyl)pyrimidin-1-yl]methyl]thieno[3,2-b]pyridin-7-yl]-6-methyl-phenoxy]-3-methyl-1-piperidyl]acetic acid]: the IC50 was below 1000 nM.

The test is the same for the next values; noted with them: recombinant full-length USP7 62 pM; ubiquitin-rhodamine 100 nM; 30-minute pre-incubation, 1 hour reaction at room temperature; read-out: Potency (USP7 IC50).
On to `Cc1cc(Cl)cc(-c2ncnc3cc(Cn4c(=O)ccn(C(C)C)c4=O)sc23)c1O[C@H]1CCNC[C@@H]1F` [Example 564, 3-[[4-[5-chloro-2-[[(3S,4S)-3-fluoro-4-piperidyl]oxy]-3-methyl-phenyl]thieno[3,2-d]pyrimidin-6-yl]methyl]-1-isopropyl-pyrimidine-2,4-dione], for which the IC50 is below 1000 nM.

`Cc1cc(Cl)cc(-c2ccnc3cc(CN4C(=O)CCC4=O)sc23)c1OC1CC[C@@H](C)NC1` (stereo partly drawn) [Example 463, 1-[[7-[5-chloro-3-methyl-2-[[(6R)-6-methyl-3-piperidyl]oxy]phenyl]thieno[3,2-b]pyridin-2-yl]methyl]pyrrolidine-2,5-dione; 2,2,2-trifluoroacetic acid]: the IC50 was below 1000 nM.

Turning to `Cc1cc(Cl)cc(-c2ncnc3cc(Cn4c(=O)ccn(C)c4=O)sc23)c1O[C@H]1CCNC[C@@H]1F` [Example 560, 3-[[4-[5-chloro-2-[[(3S,4S)-3-fluoro-4-piperidyl]oxy]-3-methyl-phenyl]thieno[3,2-d]pyrimidin-6-yl]methyl]-1-methyl-pyrimidine-2,4-dione], the IC50 was below 1000 nM.

With `Cc1cc(Cl)cc(-c2ccnc3cc(Cn4c(=O)ccn(C)c4=O)sc23)c1OC1CC2CC1N(C(C)C)C2` (centres unmarked) [Example 474, 3-[[7-[5-chloro-2-[(3-isopropyl-3-azabicyclo[2.2.1]heptan-5-yl)oxy]-3-methyl-phenyl]thieno[3,2-b]pyridin-2-yl]methyl]-1-methyl-pyrimidine-2,4-dione], the IC50 was below 1000 nM.

For `Cc1cc(Cl)cc(-c2ccnc3cc(Cn4c(=O)c(C)cn(CC(F)(F)F)c4=O)sc23)c1O[C@H]1CCCNC1` [Example 557, 3-[[7-[5-chloro-3-methyl-2-[[(3S)-3-piperidyl]oxy]phenyl]thieno[3,2-b]pyridin-2-yl]methyl]-5-methyl-1-(2,2,2-trifluoroethyl)pyrimidine-2,4-dione], the IC50 is below 1000 nM.

The values above are taken from patent publication US10722514B2 (FLX Bio, Inc., priority 2017, dated 2020).
